# The source made the active and inactive calls. The rule behind the calls is not given here.
# What was measured:
# [1] = Cytotoxicity against mouse BV-2 cells by MTT assay; format: toxicity, cell-based; settings: read-out: TC50 (the source's name)
# BV-2 [2] = assay: Antiinflammatory activity in LPS-induced mouse BV-2 cells assessed as inhibition of IL-6 production at […] incubated for 24 hrs by ELISA analysis; format: functional
# BV-2 [3] = assay: Antiinflammatory activity in LPS-induced mouse BV-2 cells assessed as inhibition of TNF-alpha production at […] incubated for 24 hrs by ELISA analysis; format: functional
# [4] = Antioxidant activity assessed as DPPH radical scavenging activity at 1 mM incubated for 30 mins by absorbance based analysis; format: functional
SMILES,CC50 [1],inhibition (BV-2 [2]),inhibition (BV-2 [3]),Activity [4]
O=C(CCCCC1CCSS1)N1CCCN(S(=O)(=O)c2cccc3c(O)nccc23)CC1 (stereo not given),> 100 µM,inactive,inactive,24.4%
O=S(=O)(c1cccc2cnccc12)N1CCCN(C(c2ccc(F)cc2)c2ccc(F)cc2)CC1,62 µM,inactive,inactive,22.7%
O=S(=O)(c1cccc2cnccc12)N1CCN(C(c2ccccc2)c2ccccc2)CC1,> 20 µM,inactive,25.8%,26.5%
COc1cc(/C=C/C(=O)N2CCCN(S(=O)(=O)c3cccc4cnccc34)CC2)ccc1OCCCCCO[N+](=O)[O-],> 100 µM,48.5%,34.9%,25.3%
COc1cc(/C=C/C(=O)OCCCCCC2CCSS2)ccc1OC(C)=O (stereo not given),> 100 µM,inactive,inactive,26.1%
CC1(C)C=Cc2cc(/C=C/C(=O)N3CCN(S(=O)(=O)c4cccc5cnccc45)CC3)ccc2O1,> 100 µM,inactive,39.2%,25.4%
CC(=O)Oc1ccccc1C(=O)OCCCCCC1CCSS1 (stereo not given),9.19 µM,27.8%,51.3%,28.5%
O=S(=O)(c1cccc2cnccc12)N1CCCN(C(c2ccccc2)c2ccccc2)CC1,> 100 µM,inactive,inactive,22.4%
CC1(C)C=Cc2cc(/C=C/C(=O)N3CCCN(S(=O)(=O)c4cccc5cnccc45)CC3)ccc2O1,64.4 µM,inactive,38.5%,33.8%
COc1cc(/C=C/C(=O)N2CCCN(S(=O)(=O)c3cccc4cnccc34)CC2)cc(OC)c1OC(C)=O,> 100 µM,35%,45.9%,22.7%
O=S(=O)(c1cccc2cnccc12)N1CCCNCC1 [FASUDIL],–,82.6%,30.1%,99%
O=S(=O)(c1cccc2cnccc12)N1CCN(C(c2ccc(F)cc2)c2ccc(F)cc2)CC1,> 20 µM,inactive,inactive,23.4%
COc1cc(/C=C/C(=O)N2CCCN(S(=O)(=O)c3cccc4cnccc34)CC2)ccc1OCCCCO[N+](=O)[O-],> 100 µM,36.3%,57.5%,20.7%
O=C(CCCCC1CCSS1)N1CCN(S(=O)(=O)c2cccc3cnccc23)CC1 (stereo not given),> 100 µM,inactive,9.02%,51.2%
